Experimental data: patent publication US6936597B2, “Prodrugs of anticancer agents employing substituted aromatic acids” (priority 2001, dated 2005)

What was measured:
[1] = test system: LX-1 (solid human lung Tumor); assay: LX-1 tumor xenograft in athymic nude mice; format: in vivo; details: when control median tumor volume reached 1000 mm^3
Protocol: All PEG conjugated compounds were dissolved (˜15 mg/mL) in sterile saline (0.9%) for injection prior to in vivo drug treatments and were given as their ara-C equivalents (absolute amount of ara-C given).
Athymic nude mice were implanted subcutaneous with a 4-5 mm^3 tissue fragment of LX-1 (solid human lung Tumor) collected from donor mice. The tumor trocar site was observed twice weekly and measured once palpable. The tumor volume for each mouse was determined by measuring two dimensions with calipers and calculated using the formula: tumor volume=(length×width^2)/2. […] The mice were sorted to evenly distribute tumor size, grouped into 4 to 6 mice/group, and ear punched for permanent identification. Drugs were administered intravenously q3d×4 (Day 1, 4, 7 and 10) via the tail vein at an approximate rate of 0.5 mL per minute.

[2] = test system: P388/O (murine lymphoid neoplasm) cell line; assay: In vitro bioassay, cell growth by Alamar Blue; format: cell-based; details: P388/O cells, three days, 37° C., in duplicate, SD ±10%
Protocol: A series of in vitro assays were conducted to determine the IC50 for unmodified Ara-C and compound 10 using the P388/O (murine lymphoid neoplasm, Southern Research Institute) cell line. The P388/0 cells were grown in RPMI 1640 medium (Whittaker Bioproducts, Walkersville, Md.)+10% FBS (Hyclone Inc., Logan Utah). Bioassays were performed in their respective media containing antibiotics and fungizone.
Ara-C was dissolved in DMSO and diluted to the appropriate concentration in culture media. The individual PEG-Ara-C compound was dissolved in water and diluted to the appropriate concentrations in culture media.
The assays were performed in duplicate in 96-well microtiter cell culture plates. Two fold serial dilution of the compounds were done in the microtiter plates. Cells were detached by incubating with 0.1% Trypsin/Versene at 37°. Trypsin was inactivated by adding the appropriate media for each cell line containing 10% FBS. To each well of the microtiter plates, 10,000 cells were added. After three days, cell growth was measured by addition of a metabolic indicator dye, Alamar Blue, according to the manufacturer's protocol. The IC50 value for the test compound and reference compound are provided above in the Table.

[3] = Half-life in rat plasma, measured by disappearance of PEG derivatives; format: in vitro ADME; details: 37° C., in duplicate, SD ±10%

Compound | % Tumor Growth Inhibition ([1]; 100 mg/kg i.v. q3d×4, LX-1 in nude mice) | IC50 [2] | t1/2 (h) Rat Plasma [3] | % Tumor Growth Inhibition ([1]; 20 mg/kg (ara-C equivalents) i.v. q3d×4, LX-1 in nude mice)
Nc1ccn([C@@H]2O[C@H](CO)[C@@H](O)[C@@H]2O)c(=O)n1 [Ara-C, cytosine arabinoside, reference compound] | 26.2% | 10 nM |  | 
PEG ara-C 4-aminobenzenamide [Compound 6b] |  | 1190 nM | 75 h | 12.3%
PEG ara-C 4-aminomethylbenzenamide [Compound 6a] |  | 122 nM | 65 h | 
